Test system: normal human lung fibroblasts
Test: Ribosomal profiling: translational efficiency in TGFβ-treated fibroblasts
Format: cell-based
Details: TGFβ-treated fibroblasts
Experimental: Ribosomal profiling allows for measurement of changes in transcription and translation on a genome-wide basis accompanying TGFβ-dependent transformation of fibroblasts to myofibroblasts. Ribosomal profiles of the TGFβ-treated fibroblasts from Example 1 (about 6×10^6 cells/10 cm plate) were prepared and analyzed for changes in translational efficiencies with respect to potential disease-associated cellular changes accompanying this TGFβ-induced transformation.
Briefly, cells were washed with cold PBS supplemented with cycloheximide and lysed with 1× mammalian cell lysis buffer for 10 minutes on ice. Lysates were clarified by centrifugation for 10 minutes at 14,000 rpm and supernatants were collected. Cell lysates were processed to generate ribosomal protected fragments and total mRNA according to the instructions included with the ARTseq Ribosome Profiling Kit (Illumina, San Diego, Calif.). Sequencing of total RNA (RNA) and of ribosome-protected fragments of RNA (RPF) was carried out using RNA-Seq methodology according to the manufacturer's instructions (Illumina). To analyze the ribosomal profiles, RNA-Seq reads were processed with tools from the FASTX-Toolkit (fastq_quality_trimmer, fastx_clipper and fastx_trimmer). Unprocessed and processed reads were evaluated for a variety of quality measures using FastQC, and processed reads were mapped to the human genome using TopHat (see, e.g., Trapnell et al., Bioinformatics 25:1105, 2009). Gene-by-gene assessment of the number of fragments strictly and uniquely mapping to the coding region of each gene was conducted using HTSeq-count, a component of the HTSeq package. […] Genes with low counts in either RPF or RNA were excluded from differential analyses. Pathway and network analyses of differential data were conducted using Ingenuity Pathway Analysis (IPA).

COC(=O)[C@H]1[C@@H](O)[C@@]2(O)c3c(OC)cc(O[C@@H]4O[C@@H]([C@H](O)CO)CO[C@H]4OC)cc3O[C@@]2(c2ccc(OC)cc2)[C@@H]1c1ccccc1 [Silvestrol]
++ (++ = 1.5 to 2.0): renormalizing the translational profile of PLEKHA5 (ENSG00000052126) | renormalizing the translational profile of PLD1 (ENSG00000075651) | renormalizing the translational profile of EDN1 (ENSG00000078401) | renormalizing the translational profile of ABCA6 (ENSG00000154262)
+++ (+++ = >2.0): renormalizing the translational profile of RASD1 (ENSG00000108551) | renormalizing the translational profile of CIT (ENSG00000122966) | renormalizing the translational profile of PPARG (ENSG00000132170)
+ (+ = 0.9 to 1.5): renormalizing the translational profile of DNASE1L1 (ENSG00000013563) | renormalizing the translational profile of ASPM (ENSG00000066279) | renormalizing the translational profile of EPB41L1 (ENSG00000088367) | renormalizing the translational profile of IRAK3 (ENSG00000090376) | renormalizing the translational profile of PABPC4 (ENSG00000090621) | renormalizing the translational profile of CEP192 (ENSG00000101639) | renormalizing the translational profile of GLCCI1 (ENSG00000106415) | renormalizing the translational profile of HBEGF (ENSG00000113070) | renormalizing the translational profile of INHBA (ENSG00000122641) | renormalizing the translational profile of MATN3 (ENSG00000132031) | renormalizing the translational profile of KDM6B (ENSG00000132510) | renormalizing the translational profile of DDX60 (ENSG00000137628) | renormalizing the translational profile of GAS2L3 (ENSG00000139354) | renormalizing the translational profile of MYO19 (ENSG00000141140) | renormalizing the translational profile of HOMER1 (ENSG00000152413) | renormalizing the translational profile of ANKH (ENSG00000154122) | renormalizing the translational profile of ADAMTS5 (ENSG00000154736) | renormalizing the translational profile of NRG1 (ENSG00000157168)
− (− = <0.9): renormalizing the translational profile of KITLG (ENSG00000049130) | renormalizing the translational profile of ADAMTS6 (ENSG00000049192) | renormalizing the translational profile of LETMD1 (ENSG00000050426) | renormalizing the translational profile of EIF4B (ENSG00000063046) | renormalizing the translational profile of RPL18 (ENSG00000063177) | renormalizing the translational profile of HIPK2 (ENSG00000064393) | renormalizing the translational profile of RASSF1 (ENSG00000068028) | renormalizing the translational profile of PABPC1 (ENSG00000070756) | renormalizing the translational profile of RPL31 (ENSG00000071082) | renormalizing the translational profile of AURKA (ENSG00000087586) | renormalizing the translational profile of RPL6 (ENSG00000089009) | renormalizing the translational profile of P2RX7 (ENSG00000089041) | renormalizing the translational profile of KDM2B (ENSG00000089094) | renormalizing the translational profile of RPLP0 (ENSG00000089157) | renormalizing the translational profile of IGBP1 (ENSG00000089289) | renormalizing the translational profile of FMO2 (ENSG00000094963) | renormalizing the translational profile of ACOT7 (ENSG00000097021) | renormalizing the translational profile of ATP5D (ENSG00000099624) | renormalizing the translational profile of LGALS1 (ENSG00000100097) | renormalizing the translational profile of EIF3L (ENSG00000100129) | renormalizing the translational profile of RPL3 (ENSG00000100316) | renormalizing the translational profile of AMMECR1 (ENSG00000101935) | renormalizing the translational profile of PLP2 (ENSG00000102007) | renormalizing the translational profile of EIF3E (ENSG00000104408) | renormalizing the translational profile of EEF1D (ENSG00000104529) | renormalizing the translational profile of C19orf53 (ENSG00000104979) | renormalizing the translational profile of GLTSCR2 (ENSG00000105373) | renormalizing the translational profile of RAB3D (ENSG00000105514) | renormalizing the translational profile of RPL18A (ENSG00000105640) | renormalizing the translational profile of COMP (ENSG00000105664) | renormalizing the translational profile of GDF10 (ENSG00000107623) | renormalizing the translational profile of RPL28 (ENSG00000108107) | renormalizing the translational profile of RPL19 (ENSG00000108298) | renormalizing the translational profile of NAT9 (ENSG00000109065) | renormalizing the translational profile of RPL34 (ENSG00000109475) | renormalizing the translational profile of CRYAB (ENSG00000109846) | renormalizing the translational profile of GAPDH (ENSG00000111640) | renormalizing the translational profile of C12orf57 (ENSG00000111678) | renormalizing the translational profile of MDFI (ENSG00000112559) | renormalizing the translational profile of RPL24 (ENSG00000114391) | renormalizing the translational profile of EEF1B2 (ENSG00000114942) | renormalizing the translational profile of IFIH1 (ENSG00000115267) | renormalizing the translational profile of DPH5 (ENSG00000117543) | renormalizing the translational profile of PPL (ENSG00000118898) | renormalizing the translational profile of PLEKHG1 (ENSG00000120278) | renormalizing the translational profile of LIAS (ENSG00000121897) | renormalizing the translational profile of GPSM2 (ENSG00000121957) | renormalizing the translational profile of RPL21 (ENSG00000122026) | renormalizing the translational profile of RPL5 (ENSG00000122406) | renormalizing the translational profile of RPL23 (ENSG00000125691) | renormalizing the translational profile of LAMP5 (ENSG00000125869) | renormalizing the translational profile of NECAB3 (ENSG00000125967) | renormalizing the translational profile of COX7C (ENSG00000127184) | renormalizing the translational profile of LIF (ENSG00000128342) | renormalizing the translational profile of MTUS1 (ENSG00000129422) | renormalizing the translational profile of ARHGEF6 (ENSG00000129675) | renormalizing the translational profile of RPL36 (ENSG00000130255) | renormalizing the translational profile of GDF15 (ENSG00000130513) | renormalizing the translational profile of ASS1 (ENSG00000130707) | renormalizing the translational profile of EIF2S3 (ENSG00000130741) | renormalizing the translational profile of RPL27 (ENSG00000131469) | renormalizing the translational profile of RARRES3 (ENSG00000133321) | renormalizing the translational profile of BIVM (ENSG00000134897) | renormalizing the translational profile of ATP5G2 (ENSG00000135390) | renormalizing the translational profile of KRT7 (ENSG00000135480) | renormalizing the translational profile of HNRNPA1 (ENSG00000135486) | renormalizing the translational profile of IL6 (ENSG00000136244) | renormalizing the translational profile of RPL35 (ENSG00000136942) | renormalizing the translational profile of NOV (ENSG00000136999) | renormalizing the translational profile of IER3 (ENSG00000137331) | renormalizing the translational profile of RPLP1 (ENSG00000137818) | renormalizing the translational profile of PAQR5 (ENSG00000137819) | renormalizing the translational profile of AOX1 (ENSG00000138356) | renormalizing the translational profile of FGF5 (ENSG00000138675) | renormalizing the translational profile of PDE5A (ENSG00000138735) | renormalizing the translational profile of DIAPH3 (ENSG00000139734) | renormalizing the translational profile of RPL13A (ENSG00000142541) | renormalizing the translational profile of RPL11 (ENSG00000142676) | renormalizing the translational profile of PLEKHA6 (ENSG00000143850) | renormalizing the translational profile of RPL32 (ENSG00000144713) | renormalizing the translational profile of RPL37 (ENSG00000145592) | renormalizing the translational profile of BTF3 (ENSG00000145741) | renormalizing the translational profile of HIGD2A (ENSG00000146066) | renormalizing the translational profile of CREB5 (ENSG00000146592) | renormalizing the translational profile of DENND2A (ENSG00000146966) | renormalizing the translational profile of RPL10 (ENSG00000147403) | renormalizing the translational profile of EIF3H (ENSG00000147677) | renormalizing the translational profile of RPL7A (ENSG00000148303) | renormalizing the translational profile of EIF3M (ENSG00000149100) | renormalizing the translational profile of FAU (ENSG00000149806) | renormalizing the translational profile of CCDC102B (ENSG00000150636) | renormalizing the translational profile of FRMD4A (ENSG00000151474) | renormalizing the translational profile of PLEKHH2 (ENSG00000152527) | renormalizing the translational profile of OBSCN (ENSG00000154358) | renormalizing the translational profile of OXA1L (ENSG00000155463) | renormalizing the translational profile of C9orf85 (ENSG00000155621) | renormalizing the translational profile of RPL30 (ENSG00000156482) | renormalizing the translational profile of EEF1A1 (ENSG00000156508) | renormalizing the translational profile of RPL8 (ENSG00000161016) | renormalizing the translational profile of RPL26 (ENSG00000161970) | renormalizing the translational profile of RPL29 (ENSG00000162244) | renormalizing the translational profile of CAMK2N1 (ENSG00000162545) | renormalizing the translational profile of IGFBP7 (ENSG00000163453) | renormalizing the translational profile of RPL22L1 (ENSG00000163584)
